From PubChem BioAssay (NCI)
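Dose response: 5 concentrations. Exposure: 48 h. Format: 96-well plates. Endpoint: linear interpolation; highest concentration if not reached. GI50 = concentration required for 50% inhibition of growth. TGI: total growth inhibition.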

Experiments:
Test in all cases: NCI-60 cell line screen, 48 h
SR leukemia = tested on: SR leukemia
SN12C renal = tested on: SN12C renal
ACHN renal = tested on: ACHN renal
SK-MEL-28 melanoma = tested on: SK-MEL-28 melanoma
MALME-3M melanoma = tested on: MALME-3M melanoma
RPMI-8226 leukemia = tested on: RPMI-8226 leukemia
HL-60(TB) leukemia = tested on: HL-60(TB) leukemia
HCT-15 colon = tested on: HCT-15 colon
LOX IMVI melanoma = tested on: LOX IMVI melanoma
OVCAR-3 ovarian = tested on: OVCAR-3 ovarian

Structure (SMILES)	GI50 (SR leukemia) [µM]	TGI (SR leukemia) [µM]	GI50 (SN12C renal) [µM]	TGI (SN12C renal) [µM]	GI50 (ACHN renal) [µM]	TGI (ACHN renal) [µM]	GI50 (SK-MEL-28 melanoma) [µM]	TGI (SK-MEL-28 melanoma) [µM]	GI50 (MALME-3M melanoma) [µM]	TGI (MALME-3M melanoma) [µM]	GI50 (RPMI-8226 leukemia) [µM]	TGI (RPMI-8226 leukemia) [µM]	GI50 (HL-60(TB) leukemia) [µM]	TGI (HL-60(TB) leukemia) [µM]	GI50 (HCT-15 colon) [µM]	TGI (HCT-15 colon) [µM]	GI50 (LOX IMVI melanoma) [µM]	TGI (LOX IMVI melanoma) [µM]	GI50 (OVCAR-3 ovarian) [µM]	TGI (OVCAR-3 ovarian) [µM]
O=C(O)CCCCC(CCSCc1ccccc1)SCc1ccccc1 (centres undefined)	36.1	> 100	41.4	> 100	51.1	> 100	45.1	> 100	87.7	> 100	30.6	96.7	46.9	> 100	33.1	> 100	48.2	> 100	37.9	> 69.9
CCOc1cccc(/C=N/NC(=O)c2ccccc2Nc2ccnc(C(F)(F)F)c2)c1O	0.0576	0.363	0.989	> 94.9	0.271	> 67.8	1.37	98.3	0.835	43.6	0.332	–	0.253	0.621	0.195	> 100	0.241	> 100	0.37	51.7
Cc1nc2cccc([N+](=O)[O-])c2c(NCCCN(C)C)c1C	–	> 57.5	–	16.1	–	> 100	–	> 100	–	> 31.6	–	> 100	–	17.8	–	> 52.8	–	> 100	–	> 63.9
CN(C)CCC(=O)N1C/C(=C/c2ccccc2)C(=O)/C(=C\c2ccccc2)C1	–	8.63	–	3.84	–	5.5	–	5.18	–	5.9	–	0.717	–	1.81	–	3.91	–	1.27	–	7.05
N#C/C(=C1C=C/C(=N/O)C(Br)=C/1)c1ccccc1	0.545	8.48	3.68	16.8	1.89	14.7	10.3	31.1	4.72	22.6	0.36	11.5	2.16	6.31	2.41	> 100	0.521	2.9	3.48	11.4
COc1ccc2[nH]c3c(C)c4c(c(C)c3c2c1)CN(C)CC4	–	83.8	–	30.6	–	35	–	27.5	–	35	–	93.3	–	4.65	–	35.3	–	27.6	–	30.3
COC(=O)CC(=O)C[P+](c1ccccc1)(c1ccccc1)c1ccccc1	–	> 218	–	> 218	–	> 218	–	> 218	–	> 218	–	> 218	–	149	–	215	–	> 218	–	> 218
COc1ccc(C2=NN(C(=O)c3cc(OC)c(OC)c(OC)c3)C(c3ccc(C#N)cc3)C2)cc1OC (centres undefined)	1.13	> 100	4.47	> 100	1.45	> 66.5	1.3	> 55	14.6	> 78.9	3.54	> 100	1.85	6.01	1.48	> 64.8	2.24	16.3	0.478	2.35
COc1cc(OC)cc(-c2ccc(-c3ccc(C(=N)N)o3)o2)c1	1.68	4.36	2.38	5.15	2.05	4.22	1.82	3.67	2.04	4.21	2.25	5.68	1.9	4.24	3.18	10.4	1.79	3.29	3.26	11.3
COc1cnc2cc(C(=O)O)c3c([N+](=O)[O-])cccc3c2c1	–	> 100	–	> 100	–	> 100	–	> 100	–	> 100	–	> 100	–	> 100	–	> 100	–	> 100	–	> 100
CCOC(=O)CCc1cc(=O)oc2cc(O)cc(O)c12	–	> 100	–	> 100	–	> 100	–	> 100	–	> 100	–	> 100	–	> 100	–	> 100	–	> 100	–	> 100
O=C(Nc1ccc(N2CCNCC2)cc1)c1[nH]ncc1Nc1cc(Oc2ccccc2)ncn1	0.299	1.84	3.19	9.31	0.213	0.479	2.26	5.75	1.98	4.93	1.5	3.88	1.91	4.54	2.18	5.64	0.22	0.54	2.18	6.26
CC1=C(C(=O)Nc2ccc3[nH]ncc3c2)C(c2ccc3ccccc3c2)CC(=O)N1 (centres undefined)	> 25	> 25	> 25	> 25	> 25	> 25	> 22.2	> 25	11	> 25	> 25	> 25	> 25	> 25	> 25	> 25	13.2	> 25	> 25	> 25
N#C/C(=C/c1ccsc1)C(=O)c1ccccc1	–	> 100	–	> 100	–	> 100	–	> 100	–	> 100	–	> 100	–	> 100	–	> 100	–	> 100	–	> 100
C[C@]12CC[C@H](O)CC1=CC[C@@H]1[C@@H]2CC[C@]2(C)C(c3cccnc3)=CC[C@@H]12	9.44	> 100	> 100	> 100	18.7	> 100	61.3	> 100	54.3	> 100	5.1	> 100	> 100	> 100	25.8	> 100	> 100	> 100	82.1	> 100
OCCC1(O)CCC(O)CC1 (centres undefined)	–	> 100	–	–	–	–	–	> 100	–	> 100	–	> 100	–	> 100	–	> 100	–	> 100	–	> 100
O=c1[nH]n2c(=O)cc[nH]c2c1-c1nnns1	–	> 100	–	> 100	–	> 100	–	> 100	–	> 100	–	> 100	–	> 100	–	> 100	–	> 100	–	> 100
COc1ccc(CNc2cc(OC)c(OC)c(OC)c2)cc1	–	> 100	–	> 100	–	> 100	–	> 100	–	> 100	–	83.1	–	> 24.5	–	> 100	–	> 100	–	> 48.5
O=NN(Cc1ccc(Cl)cc1)C(C(=O)O)c1ccccc1 (centres undefined)	–	> 100	–	> 100	–	> 100	–	> 100	–	> 100	–	> 100	–	> 100	–	> 100	–	> 100	–	> 100
CC1=C(CCCNS(C)(=O)=O)C2=C(C)C3(CC3)[C@@](C)(O)C(=O)C2=C1	36.2	> 100	1.78	> 100	2.14	7.58	1.94	4.75	0.776	2.62	> 64.5	> 100	1.98	> 24	1.23	> 100	1.8	6.34	0.89	4.7
O=c1oc2ccc(F)cc2c(=O)n1-c1ccc(F)cc1F	3.69	> 100	2.72	13.7	2.71	8.63	2.79	11.7	2.25	6.33	2.22	7.09	2.68	7.81	3.36	17.5	3.79	22	3.26	27.7
CNC(=O)OCc1c(COC(=O)NC)c(-c2ccc(Cl)c(Cl)c2)n2c1SCC2	–	39	–	34	–	17.6	–	37.3	–	37.8	–	39.7	–	25.4	–	28.1	–	25.5	–	25.2
O=C1/C(=C/c2ccc(Cl)cc2Cl)N=C(c2ccccc2)N1Cc1ccco1	> 100	> 100	18.7	36.1	11.8	28	–	–	21.2	52.8	23.8	92	18.3	52.3	37.7	> 100	50.5	> 100	22.6	45.5
O=C(CI)NC1Oc2ccccc2-c2oc(=O)c(-c3ccccc3)cc21 (centres undefined)	0.357	> 100	–	–	–	–	1.81	3.31	1.73	3.27	2.08	4.79	2.09	4.94	–	–	0.307	1.07	1.3	2.71
